Experiments:
M. incognita eggs = assay: Egg hatching experiment, 96-well plate, 10 eggs per well, 16 days; format: in vivo, Meloidogyne incognita
Source text: (§1) Tomato plants were inoculated with M. incognita juveniles and maintained in a growth chamber. After at least two months, the M. incognita eggs were extracted from the roots for experiments. The procedure followed for extracting M. incognita eggs is explained below.
(§2) The root tissues were either chopped by hand using a surgical blade and a watch glass, or it was chopped up using a food processor. The chopped tissue was then placed in a bottle and washed with a 10% dilution of bleach. Under sterile conditions, the root solution was then poured through sieves (60 count sieve on top, 500 count sieve on the bottom). The crude egg collection was collected from the bottom of the 500 count sieve into 5 mL each of bleach and egg mixture in 15 mL Falcon tubes. 5 mL of 70% sucrose solution was then placed in each Falcon tube. A 1 mL layer of double distilled sterile water was then gently placed on top of the sucrose mixtures in each Falcon tube. The samples were then centrifuged for 5 minutes at 1200 rpm. The embryos that were suspended between the sucrose solution and the 1 mL water layer were collected in a total of 3 mL (top layer of 3 mL of the solution) from each Falcon tube into fresh 15 mL Falcon tubes. 10 mL of a 5% bleach solution was added and the eggs were vortexed for 10 minutes. The Falcon tubes were then centrifuged for 5 minutes at 2000 rpm. The supernatant was then removed, and the eggs were rinsed in 10 mL of sterile double distilled water and re-centrifuged for 5 minutes at 2000 rpm. This process was repeated two more times. After the last wash, 5 mL of supernatant was removed, while the remaining 5 mL of water was mixed with the eggs and placed into a 5 mL Petri dish. The eggs were then placed in an incubator at 25-27° C., and juvenile worms (J2 stage) hatched after about 10 days. The worms were kept in a 25-27° C. incubator for storage.
The bioassay is designed to test the ability of the mixture of peptides and chalcone to prevent egg hatching (% unhatched eggs). Each test was performed in a 96-well plate with 10 eggs per well. The eggs were incubated in each treatment for 16 days. Hatched vs unhatched eggs were determined by microscopic images.
(§3) As described earlier, equal number nematodes were incubated in various treatment solutions in a 96-well plate for 5 days and the potency of different combination of nematicides was tested by counting the number of nematodes dead or surviving on Day 5. Similarly, the effect of different combination of nematicide composition on hatching of nematode eggs was also counted.

nematodes = settings: cited from earlier work; for effective concentration for nematicidal activity: peptide alone; for nematicidal activity: peptide individually, 1 mg/ml
J2 M. incognita = assay: Bioassay for killing J2 juvenile nematodes (% mortality), 96-well plate, 5 days; format: in vivo, Meloidogyne incognita; settings: for effectiveness in killing juvenile nematodes: peptide alone (0.8 mg/ml where stated), Day 5
Source text: as §1
as §2, with “The eggs were then placed in an incubator at 25-27° C., and juvenile worms (J2 stage) hatched after about 10 days. The worms were kept in a 25-27° C. incubator for storage.” left out
as §3

Compound	hatched eggs by Day 16 (M. incognita eggs; chalcone alone, 10^−4-10^−5 M)	effective concentration for nematicidal activity (nematodes)	nematicidal activity (nematodes)	hatched eggs by Day 16 (M. incognita eggs; peptide alone, 0.8 mg/ml)	death of juvenile nematodes on Day 5 (J2 M. incognita; peptide alone, 0.8 mg/ml)	effectiveness in killing juvenile nematodes (J2 M. incognita)
O=C(/C=C/c1ccccc1)c1ccc(Cl)cc1Cl [chalcone 17, (2E)-1-(2,4-Dichlorophenyl)-3-phenyl-2-propen-1-one]	~50%					
CCOc1ccc(C(=O)/C=C/c2ccccc2)cc1 [chalcone 25, (2E)-1-(4-Ethoxyphenyl)-3-phenyl-2-propen-1-one]	~50%					
Peptide 2: 15 amino acids DLLRPVVIAPQFSRQ (99-113 amino acid stretch of CED-4 protein, SEQ ID NO. 2) (Caenorhabditis elegans)		about 1 mg/ml	100%	around 30%	60-80%	
Peptide 3: 19 amino acids RQMLDRKLLLGNVPKQMTC (112-130 amino acid stretch of CED-4 protein, SEQ ID NO. 3) (Caenorhabditis elegans)		about 1 mg/ml	100%	around 10%		less effective
Peptide 12: 12 amino acids FPKFMQLHQKFY (529-540 amino acid stretch of CED-4 protein, SEQ ID NO. 4) (Caenorhabditis elegans)		about 1 mg/ml	100%	around 20%		highly effective

Source: patent US10925286B2, “Synergistic chalcone containing composition of a nematicide” (TELLURIS BIOTECH INDIA PRIVATE LIMITED, priority 2017, dated 2021)
